Source: patent publication US7919504B2, “Thiadiazole modulators of PKB” (Amgen Inc., priority 2007, dated 2011)
Structures can show the parent of a compound that is named as a salt.

Biological target: T1, PKBα (Homo sapiens, UniProt P31749)
T1 construct: the full length PKBα and a kinase domain of PKBα with pleckstrin domain (amino acids 1-117) deleted
Experiment: PKB kinase assay (P33-labeled ATP, synthetic peptide substrate, filter plate capture)
Type: biochemical
Conditions: with respect to PKBα
Source text: The kinase assay for evaluating PKB activity comprises active PKB enzymes, a PKB specific substrate, and P^33-labeled ATP. Two form of PKBα enzymes were used, the full length PKBα and a kinase domain of PKBα with pleckstrin domain (amino acids 1-117) deleted. Both PKB enzymes were obtained from Upstate cell signaling solutions (Cat. #14-276 and 14-341). The PKB substrate used is a synthetic peptide (ARKRERTYSFGHHA (SEQ ID NO: 1)) as described in Obata et al., J. Biol. Chem. 275 (46), 36108-36115 (2000). The phosphorylated substrate was captured by a phosphocellulose membrane filter plate (MILLIPORE) and measured by a Wallac Microbeta liquid scintillation counter (Perkin Elmer). Table 1 provides the IC50 values obtained for each of the examples with respect to PKBα.

T1 sequence (P31749 118-480 limits assumed): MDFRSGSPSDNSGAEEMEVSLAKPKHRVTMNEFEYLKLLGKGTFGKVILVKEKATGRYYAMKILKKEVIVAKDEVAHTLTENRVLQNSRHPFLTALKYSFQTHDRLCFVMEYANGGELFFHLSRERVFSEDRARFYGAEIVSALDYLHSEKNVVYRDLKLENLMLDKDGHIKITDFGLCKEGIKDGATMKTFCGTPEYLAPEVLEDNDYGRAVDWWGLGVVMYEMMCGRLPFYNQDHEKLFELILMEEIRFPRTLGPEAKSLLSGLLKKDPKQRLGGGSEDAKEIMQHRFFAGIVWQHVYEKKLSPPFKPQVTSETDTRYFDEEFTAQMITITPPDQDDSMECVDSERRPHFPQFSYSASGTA

| Structure (SMILES) | IC50 [nM] |
| --- | --- |
| O[C@@H]1CCCC[C@H]1CNc1nnc(-c2ccc3cnccc3c2)s1 [Example 17, (1R,2S)-2-((5-(Isoquinolin-6-yl)-1,3,4-thiadiazol-2-ylamino)methyl)cyclohexanol] | 50 to 1000 |
| Cn1c(=O)[nH]c2ccc(-c3nnc(NC[C@@H](N)Cc4ccc(C(F)(F)F)cc4)s3)cc21 [Example 1, 6-(5-((S)-2-Amino-3-(4-(trifluoromethyl)phenyl)propylamino)-1,3,4-thiadiazol-2-yl)-1-methyl-1H-benzo[d]imidazol-2(3H)-one] | < 50 |
| Cc1cccc(C[C@H](N)CNc2nnc(-c3cc4c(Cl)cncc4s3)s2)c1 [Example 13, N-((S)-2-Amino-3-m-tolylpropyl)-5-(4-chlorothieno[2,3-c]pyridin-2-yl)-1,3,4-thiadiazol-2-amine] | 50 to 1000 |
| c1ccc2[nH]c(CNc3nnc(-c4ccc5cnccc5c4)s3)nc2c1 [Example 18, N-((1H-Benzo[d]imidazol-2-yl)methyl)-5-(isoquinolin-6-yl)-1,3,4-thiadiazol-2-amine] | 1000 to 10000 |
| OC[C@H](Nc1nnc(-c2ccc3cnccc3c2)s1)[C@@H](O)c1ccccc1 [Example 16, (1S,2S)-2-(5-(Isoquinolin-6-yl)-1,3,4-thiadiazol-2-ylamino)-1-phenylpropane-1,3-diol] | 1000 to 10000 |
| N[C@H](CNc1nnc(-c2cc3c(cc2F)NC(=O)C3)s1)Cc1ccc(C(F)(F)F)cc1 [Example 3, 5-(5-((S)-2-Amino-3-(4-(trifluoromethyl)phenyl)propylamino)-1,3,4-thiadiazol-2-yl)-6-fluoroindolin-2-one] | 50 to 1000 |
| CC(F)(F)c1ccc(C[C@H](N)CNc2nnc(-c3ccc4c(c3)CC(=O)N4)s2)cc1 [Example 4, 5-(5-((S)-2-Amino-3-(4-(1,1-difluoroethyl)phenyl)propylamino)-1,3,4-thiadiazol-2-yl)indolin-2-one] | < 50 |
| CC1(C)C2CCC1(C)C(Nc1nnc(-c3ccc4cnccc4c3)s1)C2 (stereo not shown) [Example 20, 5-(Isoquinolin-6-yl)-N-(1,7,7-trimethylbicyclo[2.2.1]heptan-2-yl)-1,3,4-thiadiazol-2-amine] | 1000 to 10000 |
| N[C@H](CNc1nnc(-c2ccc3c(c2)CC(=O)N3)s1)Cc1ccc(C(F)(F)F)cc1 [Example 2, 5-(5-((S)-2-amino-3-(4-(trifluoromethyl)phenyl)propylamino)-1,3,4-thiadiazol-2-yl)indolin-2-one] | < 50 |
| CC(C)n1c(=O)[nH]c2ccc(-c3nnc(NC[C@@H](N)Cc4ccc(C(F)(F)F)cc4)s3)cc21 [Example 5, 6-(5-((S)-2-Amino-3-(4-(trifluoromethyl)phenyl)propylamino)-1,3,4-thiadiazol-2-yl)-1-isopropyl-1H-benzo[d]imidazol-2(3H)-one] | 1000 to 10000 |
| C[C@@H](c1ccc(C(F)(F)F)cc1)[C@H](N)CNc1nnc(-c2ccc3c(c2)CC(=O)N3)s1 [Example 7, 5-(5-((2S,3S)-2-Amino-3-(4-(trifluoromethyl)phenyl)butylamino)-1,3,4-thiadiazol-2-yl)indolin-2-one] | < 50 |
| N[C@H](CNc1nnc(-c2cc3c(Cl)cncc3s2)s1)Cc1cc(F)cc(F)c1 [Example 14, N-((S)-2-Amino-3-(3,5-difluorophenyl)propyl)-5-(4-chlorothieno[2,3-c]pyridin-2-yl)-1,3,4-thiadiazol-2-amine] | 50 to 1000 |
| N[C@H](CNc1nnc(-c2cc3c(Cl)cncc3s2)s1)Cc1cccc(C(F)(F)F)c1 [Example 8, N-((S)-2-amino-3-(3-(trifluoromethyl)phenyl)propyl)-5-(4-chlorothieno[2,3-c]pyridin-2-yl)-1,3,4-thiadiazol-2-amine] | 50 to 1000 |
| CC1(C)C2CC[C@H](CNc3nnc(-c4ccc5cnccc5c4)s3)C1C2 (stereo partly drawn) [Example 15, N-(((2S)-6,6-Dimethylbicyclo[3.1.1]heptan-2-yl)methyl)-5-(isoquinolin-6-yl)-1,3,4-thiadiazol-2-amine] | 50 to 1000 |
| N[C@H](CNc1nnc(-c2cc3c(Cl)cncc3s2)s1)Cc1ccccc1 [Example 12, N-((S)-2-Amino-3-phenylpropyl)-5-(4-chlorothieno[2,3-c]pyridin-2-yl)-1,3,4-thiadiazol-2-amine] | 50 to 1000 |
| c1ccc2[nH]c(CCNc3nnc(-c4ccc5cnccc5c4)s3)nc2c1 [Example 19, N-(2-(1H-Benzo[d]imidazol-2-yl)ethyl)-5-(isoquinolin-6-yl)-1,3,4-thiadiazol-2-amine] | 1000 to 10000 |

More lines, now with the values ahead:

| IC50 [nM] | Structure (SMILES) |
| --- | --- |
| < 50 | N[C@H](CCc1nnc(-c2ccc3[nH]ncc3c2)s1)Cc1ccc(C(F)(F)F)nc1 [Example 46, (2R)-4-(5-(1H-Indazol-5-yl)-1,3,4-thiadiazol-2-yl)-1-(6-(trifluoromethyl)pyridin-3-yl)butan-2-amine] |
| < 50 | N[C@H](CNc1nnc(-c2ccc3cnc(F)cc3c2)s1)Cc1ccc(C(F)(F)F)cc1 [Example 43, N-((S)-2-Amino-3-(4-(trifluoromethyl)phenyl)propyl)-5-(3-fluoroisoquinolin-6-yl)-1,3,4-thiadiazol-2-amine trifluoroacetate] |
| 1000 to 10000 | CC(Nc1nnc(-c2ccc3cnccc3c2)s1)c1ccco1 (racemic) [Example 22, (±)-N-(1-(Furan-2-yl)ethyl)-5-(isoquinolin-6-yl)-1,3,4-thiadiazol-2-amine] |
| 1000 to 10000 | NC(CNc1nnc(-c2cccc3cnncc23)s1)Cc1ccc(C(F)(F)F)cc1 (stereo in doubt) [Example 28, N-((S)-2-amino-3-(4-(trifluoromethyl)phenyl)propyl)-5-(phthalazin-5-yl)-1,3,4-thiadiazol-2-amine] |
| 50 to 1000 | O=C(Nc1nnc(-c2ccc3cnccc3c2)s1)[C@@H]1NCC[C@@H]1c1ccccc1 (racemic) [Example 26, (±)-cis-N-(5-(Isoquinolin-6-yl)-1,3,4-thiadiazol-2-yl)-3-phenylpyrrolidine-2-carboxamide] |
| < 50 | N[C@H](CCc1nnc(-c2ccc3cnc(F)cc3c2)s1)Cc1ccc(C(F)(F)F)nc1 [Example 45, (2R)-4-(5-(3-Fluoroisoquinolin-6-yl)-1,3,4-thiadiazol-2-yl)-1-(6-(trifluoromethyl)pyridin-3-yl)butan-2-amine] |
| < 50 | N[C@H](CCc1nnc(-c2ccc3cnc(F)cc3c2)s1)Cc1ccc(C(F)(F)F)cc1 [Example 48, (2R)-4-(5-(3-Fluoroisoquinolin-6-yl)-1,3,4-thiadiazol-2-yl)-1-(4-(trifluoromethyl)phenyl)butan-2-amine] |
| 50 to 1000 | OC(CNc1nnc(-c2ccc3cnccc3c2)s1)Cc1ccccc1 (racemic) [Example 29, (±)-1-(5-(isoquinolin-6-yl)-1,3,4-thiadiazol-2-ylamino)-3-phenylpropan-2-ol] |
| < 50 | N[C@H](CCc1nnc(-c2ccc3cnccc3c2)s1)Cc1ccc(C(F)(F)F)cc1 [Example 35, (2R)-4-(5-(Isoquinolin-6-yl)-1,3,4-thiadiazol-2-yl)-1-(4-(trifluoromethyl)phenyl)butan-2-amine] |
| < 50 | N[C@H](CNc1nnc(-c2ccc3cnc(F)cc3c2)s1)Cc1ccc(C(F)(F)F)nc1 [Example 44, N-((S)-2-Amino-3-(6-(trifluoromethyl)pyridin-3-yl)propyl)-5-(3-fluoroisoquinolin-6-yl)-1,3,4-thiadiazol-2-amine trifluoroacetate] |
| 1000 to 10000 | Oc1cccc(C(O)CNc2nnc(-c3ccc4cnccc4c3)s2)c1 (racemic) [Example 24, (±)-3-(1-Hydroxy-2-(5-(isoquinolin-6-yl)-1,3,4-thiadiazol-2-ylamino)ethyl)phenol] |
| 50 to 1000 | N[C@H](CNc1nnc(-c2ccc3ncncc3c2)s1)Cc1ccc(C(F)(F)F)cc1 [Example 25, N-((S)-2-Amino-3-(4-(trifluoromethyl)phenyl)propyl)-5-(quinazolin-6-yl)-1,3,4-thiadiazol-2-amine] |
| 50 to 1000 | N[C@H](CCc1nnc(-c2ccc3c(c2)CC(=O)N3)s1)Cc1ccc(C(F)(F)F)nc1 [Example 47, 5-(5-((R)-3-Amino-4-(6-(trifluoromethyl)pyridin-3-yl)butyl)-1,3,4-thiadiazol-2-yl)indolin-2-one trifluoroacetate] |
| < 50 | N[C@H](CNc1nnc(-c2ccc3c(c2)CC(=O)N3)s1)Cc1ccc(Cl)cc1 [Example 34, 5-(5-((S)-2-Amino-3-(4-chlorophenyl)propylamino)-1,3,4-thiadiazol-2-yl)indolin-2-one] |
| 1000 to 10000 | N[C@H](C(=O)Nc1nnc(-c2ccc3cnccc3c2)s1)[C@@H](CO)c1ccc(C(F)(F)F)cc1 [Example 31, (2S,3S)-2-Amino-4-hydroxy-N-(5-(isoquinolin-6-yl)-1,3,4-thiadiazol-2-yl)-3-(4-(trifluoromethyl)phenyl)butanamide hydrochloride] |
| 50 to 1000 | O[C@H]1CCCC[C@H]1CNc1nnc(-c2ccc3cnccc3c2)s1 [Example 21, (1S,2S)-2-((5-(Isoquinolin-6-yl)-1,3,4-thiadiazol-2-ylamino)methyl)cyclohexanol] |
| < 50 | N[C@H](CNc1nnc(-c2ccc3[nH]c(=O)oc3c2)s1)Cc1ccc(Cl)cc1 [Example 50, 6-(5-((S)-2-Amino-3-(4-chlorophenyl)propylamino)-1,3,4-thiadiazol-2-yl)benzo[d]oxazol-2(3H)-one] |
| 50 to 1000 | c1ccc([C@@H]2CCN[C@@H]2CNc2nnc(-c3ccc4cnccc4c3)s2)cc1 (racemic) [Example 33, Racemic mixture of 5-(isoquinolin-6-yl)-N-(((2S,3S)-3-phenylpyrrolidin-2-yl)methyl)-1,3,4-thiadiazol-2-amine and 5-(isoquinolin-6-yl)-N-(((2R,3R)-3-phenylpyrrolidin-2-yl)methyl)-1,3,4-thiadiazol-2-amine] |
